Assay results from patent publication US20030119733A1, “Compositions and methods for inhibiting hepatocyte invasion by malarial sporozoites” (New York University, priority 1992, published 2003).
Several values for one entry are separate records, joined by “and”; a condition that tells them apart may be missing. Identical values can stand only once. Like-named read-outs stand apart in the source and are kept apart here. Where no end group is shown, it is not given here.

Legend:
[1] = test system: binding of CSFZ(Cys) to HepG2 cells; assay: Inhibition of CS binding to HepG2 cells by glycosaminoglycans; set-up: species or system human; details: preincubated with 5 μg/ml CSFZ(Cys); FIG. 9
Procedure: 10^5 HepG2 cells were deposited in 96-well Removawell tissue culture plates and allowed to grow overnight in MEM (Gibco) containing 10% FCS, 1 mM L-glutamine (Gibco), 3 mg/ml glucose (Sigma) and 1× non-essential amino acids (Gibco). The HepG2 cells were fixed with 4% paraformaldehyde in TBS (50 mM Tris-HCl, pH 7.5, 137 mM NaCl, 2 mM KCl), were washed 3 times with TBS, and were stored at 4° C. in BSA/TBS until use. CSFZ(Cys) at 5 μg/ml was incubated with increasing amounts of the presumed inhibitors at 37° C. for 15 min. Fifty μl of these mixtures were added to the cells, incubated for 1 hr at 37° C., washed 3× with TBS/0.05% Tween and then sequentially incubated with 50 μl of mAb 2A10 at a concentration of 10 μg/ml in TBS/BSA buffer for 30 min at 37° C., and 1:5000 dilution of goat anti-mouse IgG conjugated to alkaline phosphatase (Boehringer) for 30 minutes. […] After 15 minutes, the fluorescence was measured in a Fluoroskan II plate reader (ICN).
Proteoglycans were preincubated with 5 μg/ml of CSFZ(Cys) and then were added to paraformaldehyde-fixed HepG2 cells. […] Each point represents the mean of triplicates. Percent inhibition was calculated by comparison to CSFZ(Cys) preincubated in medium alone.

[2] = test system: heparan sulfate proteoglycans (HSPG); assay: CS/proteoglycan co-immunoprecipitation; assay type: binding, human; details: for effect on co-immunoprecipitation of the CS receptor by CSFZ(Cys): 100 μg/ml added to 35SO4-labeled HepG2 cell extracts; for effect on co-immunoprecipitation of purified proteoglycans by CSFZ(Cys): purified trypsin-released HepG2 proteoglycan, FIG. 17
Procedure: All extracts and supernatants were first precleared with normal rabbit serum and Staph A cells. Then 32 μg/ml of CSFZ(Cys) or 64 μg/ml of CS27IVC, Falc-2 or Falc-1 were added for 30 minutes, followed by 10.8 μg/ml mAb 2A10 for 30 minutes, and 1% Staph A cells (final concentrations). The suspensions were shaken for 1 to 5 hours at 4° C. The Staph A cells were washed 3 times with the lysis buffer A, 2 times with lysis buffer B (10 mM Tris-HCl, pH 7.2, containing 100 mM NaCl and 0.5% NP40), 1 time with 50 mM Tris-HCl, ph 7.2, and were processed in this buffer for electrophoresis under reducing and non-reducing conditions.
Extracts of cells metabolically labeled with ^35SO4 were incubated for 30 minutes at 4° C. with 32 μg/ml of recombinant CSFZ(Cys) or 64 μg/ml Falc-1, and were immunoprecipitated with mAb 2A10 and Staph A cells. […] Immunoprecipitation with Falc-1 was negative. The SDS-PAGE patterns of the total lysate of HepG2 cells, and of the molecules co-immunoprecipitated with CSFZ(Cys) resembled the corresponding liver SDS-PAGE patterns. In kidney lysates, CSFZ(Cys) selectively immunoprecipitated a band of slightly lower molecular weight than the total kidney sulfated molecules.
Sub-confluent HepG2 cells were incubated with various concentrations of trypsin for 5 minutes at 4° C. […] Independently of the trypsin concentration, about 80% of the released HSPG was co-immunoprecipitated by 32 μg/ml CSFZ(Cys) and 10.8 μg/ml mAb 2A10. Under the same conditions, Falc-1 was negative.
^35SO4-labeled trypsin-released proteoglycan (total supernatant) was precipitated by CSFZ(Cys) (32 μg/ml), Falc-2 (64 μg/ml), CS27IVC (64 μg/ml) and Falc-1 (64 μg/ml). The labeled molecules were incubated with CSFZ(Cys), CS27IVC, and Falc-2 at equivalent concentrations of Region II+, and co-immunoprecipitated with the mAb 2A10. CSFZ(Cys), lacking most of the repeat region, precipitated up to 86% of the total sulfate-labeled proteoglycans (see FIG. 14), while CS27IVC and Falc-2 precipitated only 18% and 6% of the counts, respectively. Falc-1, which lacks Region II+, was negative.
Subconfluent sulfate-labeled HepG2 cells were incubated with 20 μg/ml trypsin for 5 minutes at 4° C., and the supernatants were loaded onto an anion exchange chromatography Pharmacia mono-Q column. These were eluted with a 0 to 2 M NaCl gradient in the presence of 7 M urea. […] Protein was not detectable in the labeled peaks. One ml fractions were collected and counted.

[3] = test system: Vivax-2 binding to sulfatide; assay: Inhibition of binding of Vivax-2 to sulfatide; set-up: species or system P. vivax
Procedure: (§1) Solid phase binding assays: Thirty μl of lipids or steroids dissolved in methanol (20-250 μg/ml) were dried into wells of microassay plates (Cat.# 3911—Falcon—Oxnard, Calif.). The plates were then blocked with 1% BSA/PBS pH 7.4 (BSA/PBS) for 30 minutes. Wells were incubated with recombinant protein (or with parasite extract) in PBS/BSA for 1 hour, washed 3 times with BSA/PBS, incubated for 1 hour with monoclonal antibodies 2F2 or 2A10 in BSA/PBS, washed 3 times, and then incubated with (10^5 cpm/well) ^125I protein A (Amersham Corp., Arlington Hts., Ill.). In the case of the P. berghei CS protein, wells were incubated with ^125I labelled mAb 3D11. Wells were washed again and the bound radioactive protein was counted in an LKB gamma-counter (model #1260, Pharmacia, Inc., Gaithersburg, Md.). For inhibition assays, the recombinant proteins were mixed with dilutions of the various polymers in BSA/PBS, the mixture was loaded into the wells of the microtiter plates, and the binding assay performed as above. See also, Roberts, et al. J. Biol. Chem. 260:9405-9411, 1985.

[4] = test system: Vivax-2 binding to cholesterol-sulfate; assay: Inhibition of binding of Vivax-2 to cholesterol-sulfate; set-up: species or system P. vivax
Procedure: as §1

P. berghei sporozoites [5] = assay: Infection assay of HepG2 cells with polymers; assay type: cell-based; details: for invasion of hepatocytes by sporozoites in vitro: no conditions given; for effect on sporozoite invasion: present during invasion, 5-50 μg/ml
Procedure: Infection assay: Semiconfluent monolayers of HepG2 cells were grown in 10% FCS/MEM on 8 chamber slides (#4808 Lab-tek -Naperville, Ill.) for 24 hours prior to each experiment. Sporozoites were pre-incubated in media alone or with the various polymers for 15 minutes at 4° C. 5×10^4 sporozoites, in a volume of 10 μl, were added per chamber. After 4 hours of incubation at 37° C., the medium containing the sporozoites was gently aspirated, and 0.5 ml MEM/10% FCS was added. Fresh medium was added at 18 hours and 28 hours, and then cells were fixed with methanol containing 0.3% H2O2 at 48 hours. After fixation, the wells were blocked with 10% FCS/PBS and were incubated with 10 μg/ml of mAb 2E6. Binding of the mAb was detected with a polyclonal goat anti-mouse Ig conjugated to horseradish peroxidase. […] The parasites in each well are counted under a 40× light microscope objective.
The cells were fixed and stained with mAb 2E6, followed by goat-anti-mouse linked to horseradish peroxidase. Numbers represent schizonts counted/20 fields under 40× magnification in a light microscope.

[6] = test system: binding of CS27IVC to liver sections; assay: Peptide inhibition of CS27IVC binding to frozen liver sections; set-up: species or system rat; details: peptide preincubation, up to 500 μg/ml
Procedure: The procedure was carried out essentially as described by Dukor P. et al., Proc. Natl. Acad. Sci. USA 67:991-997, 1970 and Imai Y. et al., J. Cell. Biol. 111:1225-1232, 1990. Rats were euthanized with CO2. Small pieces of the liver, spleen, heart, brain and lung were removed, snap frozen in liquid nitrogen, embedded in Tissue Tek O.C.T. (Miles, Inc., Naperville, Ill.), and cut into 5 μm sections. Sections were dried for 30 min., fixed for 10 min. in 4% paraformaldehyde, rinsed three times with phosphate-buffered saline (PBS), and either used immediately or stored at 4° C. in 1% BSA, 0.5% Tween, PBS (BSA/TPBS). After blocking with 100 mM glycine (pH 7.2) and with BSA/TPBS, the sections were sequentially incubated at 37° C. with recombinant proteins for 1 hr, 10 μg/ml MAb 2A10 for 45 min., and rat anti-mouse immunoglobulin conjugated to fluorescein isothiocyanate (Boehringer Mannheim, Indianapolis, Ind.) for 45 min. The slides were counterstained for 10 min. with 0.3% Evans blue, rinsed extensively in PBS, and finally observed under a fluorescence microscope. For peptide inhibition experiments, the sections were first incubated with the peptide at various concentrations in BSA/TPBS for 1 hour at 37° C., washed six times with BSA/TPBS, and then stained with 2.5 μg/ml CS recombinant protein as described above. In a few experiments, the tissues were fixed for 10 min. with methanol, acetone, or 4% paraformaldehyde containing 0.5% glutaraldehyde.

P. berghei sporozoites [7] = assay type: cell-based; details: for Number of EEF (Mean ± SD): schizonts per 20 fields
Procedure: Assays were conducted according to the methods described by Hollingdale, M. R. et al.. Science 213:1021-1022, 1981. and Sinden, R. E., WHO Bulletin MOS (Suppl.) 68:115-125, 1990. HepG2 cells were plated in FCS-MEM at a density of 0.5×10^6 cells/ml in 8-chamber slides (4808 Lab-tek, Naperville, Ill.) 24 hr. before each experiment. […] For antibody inhibition experiments, sporozoites were preincubated in FCS-MEM alone, or FCS-MEM containing anti-Region II IgG, or with preimmune sera IgG for 30 min. at 4° C. Sporozoites (5×10^4), in a volume of 100 μl, were added to each well. The medium was replenished after 2 hr. and changed after 18 and 28 hr. Each point was performed in quadruplicate. In experiments designed to evaluate the toxicity of the peptides and antisera, sporozoites were first incubated with the HepG2 cells for 2 hr in FCS-MEM. FCS-MEM containing the peptide at a concentration of 250 μg/ml (or the IgGs at a concentration of 700 μg/ml) was then added to the cultures, and incubation proceeded for two additional hours. As above, FCS-MEM was changed after 18 and 28 hr. All cultures were fixed with cold methanol containing 0.3% H2O2 after 48 hr. […] The number of exoerythrocytic forms in 20 fields was counted in a double-blind fashion under a 20× light microscope objective.
The number of exoerythrocytic forms (“EEF”) of the parasite that developed in the HepG2 cells were counted two days later. […] In Table 2, “Number of EEF” represents the average number of schizonts counted per 20 fields under 20-times magnification of a light microscope in quadruplicate wells; P values were calculated by one-way analysis of variances corrected by the Bonferroni method using the commercially available computer program GraphPAD Instat, version 1.14, copyright 1990. […]

[8] = peptide 500 μg/ml present during invasion

| Substance | inhibition of CS binding to HepG2 cells [1] | effect on co-immunoprecipitation of the CS receptor by CSFZ(Cys) [2] | effect on co-immunoprecipitation of purified proteoglycans by CSFZ(Cys) [2] | % INHIBITION ([4]; inhibitor 10 mg/ml) | invasion of hepatocytes by sporozoites in vitro (P. berghei sporozoites [5]) | % INHIBITION ([3]; inhibitor 1 mg/ml) | effect on sporozoite invasion (P. berghei sporozoites [5]) | further results |
| --- | --- | --- | --- | --- | --- | --- | --- | --- |
| heparin | inhibited | prevented | inhibited co-immunoprecipitation | 31.2% | inhibited | – | – | % INHIBITION ([3]; inhibitor 100 μg/ml): 0%; % INHIBITION ([4]; inhibitor 1 mg/ml): 0% |
| heparan-sulfate | inhibited | – | – | 0% | – | 0% | no effect | effect on binding to sulfatide ([3]; 1 mg/ml): no effect |
| PGSANKPKDELDYANIEKK [Pf4] | – | – | – | – | – | – | – | inhibition of the binding of CS27IVC to liver sections [6]: failed to inhibit; Number of EEF (Mean ± SD) (P. berghei sporozoites [7]; peptide 250 μg/ml present during invasion): 122.5 ± 13.4 and 123.7 ± 20.1 and 105.0 ± 12.5; Percentage of Inhibition (P. berghei sporozoites [7]; [8]): 0.0%; Number of EEF (Mean ± SD) (P. berghei sporozoites [7]; [8]): 375.2 ± 52 |
| chondroitin sulfate | not | no effect | not | – | – | – | – | – |
| dextran | not | – | – | 0% | – | 0% | no effect | – |
| fucoidan | inhibited | – | – | – | inhibited | – | – | – |
